Experimental data: US5789434A, “Derivatives of substituted 4-biarylbutyric acid as matrix metalloprotease inhibitors” (priority 1995, dated 1998)

Columns and labels:
Assay type in all cases: biochemical
MMP-3 = biological target: T1, MMP-3 (Homo sapiens, UniProt P08254); assay: Automated MMP Profiling Assay, MMP-3 fluorogenic; settings: for IC50: 96-well automated, P218
T1 construct: Truncated Prostromelysin-257 was expressed in a soluble form in E.coli; made in house; host or cells: E. coli
Excerpt: This assay with each invention compound was run with the three enzymes MMP-3, MMP-9 and MMP-2 in parallel as adapted for a 96-well microtitre plate using a Hamilton A® workstation.

MMP-9 = biological target: T2, MMP-9 (Homo sapiens, UniProt P14780); assay: Automated MMP Profiling Assay, MMP-9 fluorogenic; settings: for IC50: 96-well automated, P218
T2 construct: from tissue; host or cells: human polymorphonuclear leukocytes (PMN) from whole blood (New York Blood Center), PMA-stimulated supernatant
T2 sequence (P14780 107-707 limits assumed): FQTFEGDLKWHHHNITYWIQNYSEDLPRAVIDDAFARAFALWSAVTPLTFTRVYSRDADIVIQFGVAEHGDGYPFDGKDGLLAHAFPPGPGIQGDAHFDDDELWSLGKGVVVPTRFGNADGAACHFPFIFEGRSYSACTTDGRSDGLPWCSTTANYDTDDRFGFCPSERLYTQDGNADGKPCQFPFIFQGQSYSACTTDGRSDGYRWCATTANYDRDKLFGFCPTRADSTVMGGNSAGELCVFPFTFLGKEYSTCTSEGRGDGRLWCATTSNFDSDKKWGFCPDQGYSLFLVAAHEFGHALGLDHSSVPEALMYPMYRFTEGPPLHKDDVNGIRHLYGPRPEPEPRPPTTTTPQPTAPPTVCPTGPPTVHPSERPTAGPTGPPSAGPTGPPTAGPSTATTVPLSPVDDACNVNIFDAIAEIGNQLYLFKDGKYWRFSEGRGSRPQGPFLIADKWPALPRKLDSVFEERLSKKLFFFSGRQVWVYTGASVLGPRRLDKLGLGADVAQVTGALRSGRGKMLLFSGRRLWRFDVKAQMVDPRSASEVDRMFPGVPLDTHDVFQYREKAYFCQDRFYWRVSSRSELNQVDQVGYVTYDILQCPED

MMP-2 = biological target: T3, MMP-2 (Homo sapiens, UniProt P08253); assay: Automated MMP Profiling Assay, MMP-2 fluorogenic; settings: 96-well automated, P218; read-out: MMP-2 Fluorogenic IC50 (profiling)
T3 sequence (P08253 110-660): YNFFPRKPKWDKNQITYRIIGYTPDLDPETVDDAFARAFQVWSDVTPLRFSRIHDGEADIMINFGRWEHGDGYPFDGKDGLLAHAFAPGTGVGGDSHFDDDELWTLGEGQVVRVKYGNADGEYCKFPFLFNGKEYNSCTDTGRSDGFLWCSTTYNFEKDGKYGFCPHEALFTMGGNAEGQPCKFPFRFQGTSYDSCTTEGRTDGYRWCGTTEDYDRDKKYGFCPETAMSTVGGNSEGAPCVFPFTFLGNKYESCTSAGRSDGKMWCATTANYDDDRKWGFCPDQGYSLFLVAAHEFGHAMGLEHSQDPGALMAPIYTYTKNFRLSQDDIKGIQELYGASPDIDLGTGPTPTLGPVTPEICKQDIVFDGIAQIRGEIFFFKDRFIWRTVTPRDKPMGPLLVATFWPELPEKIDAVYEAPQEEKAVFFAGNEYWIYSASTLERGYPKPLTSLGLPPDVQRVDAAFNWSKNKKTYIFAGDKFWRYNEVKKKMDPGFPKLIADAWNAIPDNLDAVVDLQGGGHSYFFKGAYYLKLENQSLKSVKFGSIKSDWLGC

T1 sequence (P08254 100-274 limits assumed): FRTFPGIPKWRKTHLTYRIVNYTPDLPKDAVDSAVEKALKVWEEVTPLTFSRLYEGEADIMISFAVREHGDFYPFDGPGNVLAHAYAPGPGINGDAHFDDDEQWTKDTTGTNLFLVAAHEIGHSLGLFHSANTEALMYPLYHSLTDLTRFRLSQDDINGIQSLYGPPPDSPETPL

Row | Compound | IC50 (MMP-3) [nM] | IC50 (MMP-9) [nM] | IC50 (MMP-2) [nM] | inhibition at 5 µM (MMP-3) [%] | inhibition at 5 µM (MMP-9) [%]
1 | O=C(O)[C@H]1[C@@H](SCc2ccccc2)CC[C@@H]1C(=O)c1ccc(-c2ccc(Cl)cc2)cc1 (relative stereo) [Example 440, Cyclopentanecarboxylic acid, 2-[(4'-chloro[1,1'-biphenyl]-4-yl)carbonyl]-5-[(phneylmethyl)thio]-, (1α,2β,5α)-] | 58 | 380 | 43 | – | –
2 | O=C(O)c1cccc(CCC(CC(=O)c2ccc(-c3ccc(Cl)cc3)cc2)C(=O)O)c1 (stereo not drawn) [Example 148, [1,1'-Biphenyl]-4-butanoic acid, α-[2-(3-carboxyphenyl)ethyl]-4'-chloro-γ-oxo-] | 90 | 454 | 54 | – | –
3 | O=C(CC(CCNC(=O)c1ccccc1C(=O)O)C(=O)O)c1ccc(-c2ccc(Cl)cc2)cc1 (stereo not drawn) [Example 279, [1,1'-Biphenyl]-4-butanoic acid, α-[2-[(2-carboxybenzoyl)amino]ethyl]-4'-chloro-γ-oxo-] | 402 | 286 | 67 | – | –
4 | COC(=O)c1ccccc1C(=O)OC[C@@H]1CC[C@H](C(=O)c2ccc(-c3ccc(Cl)cc3)cc2)[C@H]1C(=O)O (relative stereo) [Example 368] | 36 | 30 | 31 | – | –
5 | COCCCc1ccc(-c2ccc(C(=O)CC(CCCc3ccccc3)C(=O)O)cc2)cc1 (stereo not drawn) [Example 355, [1,1'-Biphenyl]-4-butanoic acid, 4'-(3-methoxypropyl)-γ-oxo-α-(3-phenylpropyl)-] | 508 | 1080 | 90 | – | –
6 | O=C(c1ccc(-c2ccc(Cl)cc2)cc1)C1CCC(Sc2ccccc2)C1C(=O)O (stereo not drawn) [Example 312, Cyclopentanecarboxylic acid, 2-[(4'-chloro[1,1'-biphenyl]-4-yl)carbonyl]-5-(phenylthio)-, (1α,2β,5α)-] | 80 | 871 | 60 | – | –
7 | CCCCCCOc1ccc(-c2ccc(C(=O)CC(CCc3ccccc3)C(=O)O)cc2)cc1 (stereo not drawn) [Example 159, [1,1'-Biphenyl]-4-butanoic acid, 4'-(hexyloxy)-γ-oxo-α-(2-phenylethyl)-] | 116 | > 1250 | 42 | – | –
8 | O=C(O)[C@@H]1CN(Cc2ccccc2)C[C@H]1C(=O)c1ccc(-c2ccc(Cl)cc2)cc1 (relative stereo) [Example 175, 3-Pyrrolidinecarboxylic acid, 4-[(4'-chloro[1,1'-biphenyl]-4-yl)carbonyl]-1-(phenylmethyl)-, trans-] | – | – | 5000 | 28 | 6
9 | Cc1ccc2c(c1)C(=O)N(CCC(CC(=O)c1ccc(-c3ccc(Cl)cc3)cc1)C(=O)O)C2=O (stereo not drawn) [Example 416, 2H-Isoindole-2-butanoic acid, α[2-(4'-chloro[1,1'-biphenyl]-4-yl)-2-oxoethyl]-1,3-dihydro-5-methyl-1,3-dioxo-] | 9.5 | 2.5 | 23 | – | –
10 | O=C(O)[C@@H]1[C@@H](C(=O)c2ccc(-c3ccc(Cl)cc3)cc2)[C@H]2C=C[C@@H]1C2 (relative stereo) [Example 177, Bicyclo[2.2.1]hept-5-ene-2-carboxylic acid, 3-[(4'-chloro[1,1'-biphenyl]-4-yl)carbonyl]-, (2-endo-,3-endo)-] | – | – | 4330 | 11 | 30
11 | O=C(c1ccc(-c2ccc(Cl)cc2)cc1)[C@H]1CCN(C(=O)NCc2ccccc2)[C@@H]1C(=O)O [Example 168, L-Proline, 3-[(4'-chloro[1,1'-biphenyl]-4-yl)carbonyl]-1-[[(phenylmethyl)amino]carbonyl]-, trans-] | 49 | 163 | 15 | – | –
12 | COc1cccc(C(=O)OC[C@@H]2CC[C@H](C(=O)c3ccc(-c4ccc(Cl)cc4)cc3)[C@H]2C(=O)O)c1 (relative stereo) [Example 382, Benzoic acid, 3-methoxy-, [2-carboxy-3-[(4'-chloro[1,1'-biphenyl]-4-yl)carbonyl]cyclopentyl]methyl ester, (1α,2β,3α)-] | 42 | 39 | 64 | – | –
13 | CCOc1ccc(-c2ccc(C(=O)CC(CCN3C(=O)c4ccccc4C3=O)C(=O)O)cc2)cc1 (stereo not drawn) [Example 273, 2H-Isoindole-2-butanoic acid, α-[2-(4'-ethoxy[1,1'-biphenyl]-4-yl)-2-oxoethyl]-1,3-dihydro-1,3-dioxo-] | 21 | 1.25 | 2.27 | – | –
14 | CCCCNC(=O)c1ccccc1CCC(CC(=O)c1ccc(-c2ccc(Cl)cc2)cc1)C(=O)O (stereo not drawn) [Example 147, [1,1'-Biphenyl]-4-butanoic acid, α-[2-[2-[(butylamino)carbonyl]phenyl]ethyl]-4'-chloro-γ-oxo-] | 266 | 676 | 73 | – | –
15 | CCCCCOc1ccc(-c2ccc(C(=O)C3CCC=C3C(=O)O)cc2)cc1 (stereo not drawn) [Example 442, 1-Cyclopentene-1-carboxylic acid, 5-[[4'-(pentyloxy)[1,1'-biphenyl]-4-yl]carbonyl]-] | 2760 | – | 962 | – | 40
16 | O=C(CC(CCN1C(=O)c2ccccc2C1=O)C(=O)O)c1ccc(-c2ccc(Cl)cc2)cc1 (racemic) [Example 267, 4-[4-(4-chlorophenyl)phenyl]-4-oxo-2-(2-phthalimidoethyl)butanoic acid] | 15 | 3 | 2.6 | – | –
17 | CCN(CC)C(=O)c1cccc(CCC(CC(=O)c2ccc(-c3ccc(OCc4ccccc4)cc3)cc2)C(=O)O)c1 (stereo not drawn) [Example 165, [1,1'-Biphenyl]-4-butanoic acid, α-[2-[3-[(diethylamino)carbonyl]phenyl]ethyl]-γ-oxo-4'-(phenylmethoxy)-] | 13 | 55 | 3 | – | –
18 | CC(=O)O[C@@H]1C[C@H](C(=O)c2ccc(-c3ccc(Cl)cc3)cc2)[C@H]1C(=O)O (relative stereo) [Example 396, Cyclobutanecarboxylic acid, 2-(acetyloxy)-4-[(4'-chloro[1,1'-biphenyl]-4-yl)carbonyl]-, (1α,2β,4β)-] | 779 | 2290 | 362 | – | –
19 | CCCCCOc1ccc(-c2ccc(C(=O)CC(CCc3cccc(I)c3)C(=O)O)cc2)cc1 (stereo not drawn) [Example 162, [1,1'-Biphenyl]-4-butanoic acid, α-[2-(3-iodophenyl)ethyl]-γ-oxo-4'-(pentyloxy)-] | 181 | – | 22 | – | 8
20 | Cc1ccc(COc2ccc(-c3ccc(C(=O)CC(CCCc4ccccc4)C(=O)O)cc3)cc2)cc1 (stereo not drawn) [Example 103, [1,1'-Biphenyl]-4-butanoic acid, 4'-[(4-methylphenyl)methoxy]-γ-oxo-α-(3-phenylpropyl)-] | 57 | – | 30 | – | 28
21 | O=C(CC(CSc1ccccc1)C(=O)O)c1ccc(-c2ccc(O)cc2)cc1 (stereo not drawn) [Example 444, [1,1'-Biphenyl]-4-butanoic acid, 4'-hydroxy-γ-oxo-α-[(phenylthio)methyl]-] | < 5000 | < 5000 | 43 | – | –
22 | O=C(CC(CCN1C(=O)c2cc3ccccc3cc2C1=O)C(=O)O)c1ccc(-c2ccc(Cl)cc2)cc1 (stereo not drawn) [Example 409, 2H-Benz[.function.]isoindole-2-butanoic acid, α-[2-(4'-chloro[1,1'-biphenyl]-4-yl)-2-oxoethyl]-1,3-dihydro-1,3-dioxo-] | 12.3 | 1.9 | 30 | – | –
